Assay results reported in ChEMBL document CHEMBL6178023 (J Med Chem, 2025).
≈ marks a conversion by molar mass, not a printed value. Calls of active or inactive are those of the source. The rule behind the calls is not given here.

Legend:
Polyprotein P1234 = Polyprotein P1234 (Chikungunya virus (strain S27-African prototype) (CHIKV), UniProt Q8JUX6); assay: Inhibition of N-terminal 6-His/SUMO-tagged CHIKV 181/25 nsP2 extracted from Escherichia coli Rosetta 2 preincubated for 30 mins followed by ATP addition measured after 1 hr by ADP-Glo assay
Chain of Polyprotein P1234 (Q8JUX6 536-1333 limits assumed): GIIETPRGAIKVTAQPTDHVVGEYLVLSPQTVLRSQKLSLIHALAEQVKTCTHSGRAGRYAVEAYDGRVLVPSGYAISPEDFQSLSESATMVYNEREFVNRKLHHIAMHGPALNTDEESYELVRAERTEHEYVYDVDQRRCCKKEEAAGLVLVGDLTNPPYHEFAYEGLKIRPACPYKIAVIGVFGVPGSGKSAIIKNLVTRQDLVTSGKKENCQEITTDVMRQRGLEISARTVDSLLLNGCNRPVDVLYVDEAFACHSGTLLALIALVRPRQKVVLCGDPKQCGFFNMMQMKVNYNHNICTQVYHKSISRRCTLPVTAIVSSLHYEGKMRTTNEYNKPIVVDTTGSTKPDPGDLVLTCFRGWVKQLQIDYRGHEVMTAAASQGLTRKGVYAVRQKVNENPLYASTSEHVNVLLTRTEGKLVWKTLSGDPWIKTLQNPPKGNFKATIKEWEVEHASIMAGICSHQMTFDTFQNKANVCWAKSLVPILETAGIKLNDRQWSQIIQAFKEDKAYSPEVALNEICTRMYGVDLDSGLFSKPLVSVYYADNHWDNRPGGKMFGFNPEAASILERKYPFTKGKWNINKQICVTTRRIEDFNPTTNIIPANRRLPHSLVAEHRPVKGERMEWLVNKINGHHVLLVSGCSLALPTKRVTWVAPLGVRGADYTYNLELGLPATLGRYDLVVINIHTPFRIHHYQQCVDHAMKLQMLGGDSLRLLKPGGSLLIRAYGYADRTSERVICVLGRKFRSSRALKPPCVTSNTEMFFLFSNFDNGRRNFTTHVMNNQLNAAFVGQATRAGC

MRC5 = assay: Cytotoxicity against human MRC5 cells at 10 to 40 uM by Cell Titer Glo assay; assay type: toxicity, cell-based; settings: mrc5, 40 µM, dose 10-40 µM
Chikungunya virus [1] = assay: Antiviral activity against CHIKV 181/25 expressing nLuc-capsid gene infected in human MRC5 cells assessed as reduction in viral replication preincubated with cells for 1 hr followed by viral infection measured after 6 hrs post-infection by Nano-glo luciferase assay; assay type: functional, organism-based
[2] = Aqueous solubility of compound in PBS at pH 7.4; assay type: physicochemical
Chikungunya virus [3] = assay: Inhibition of N-terminal 6-His/SUMO-tagged CHIKV 181/25 nsP2 extracted from Escherichia coli Rosetta 2 at 200 uM preincubated for 30 mins followed by ATP addition measured after 1 hr by ADP-Glo assay relative to control; settings: time 90.0 min
[4] = 181/25, MRC5, read-out: pEC50 (converted)

Structure (SMILES) | IC50 (Polyprotein P1234) | Activity (MRC5) | EC50 (Chikungunya virus [1]; [4]) | solubility kinetic [2] | inhibition (Chikungunya virus [3]) | EC50 (Chikungunya virus [1]; 181/25, MRC5, read-out: EC50)
CCCCCCN(CC1CCOC2(CCN(C(=O)C3(c4ccccc4)CCCC3)CC2)C1)S(C)(=O)=O (configuration not stated) | 12.6 µM | Non-toxic | 1.58 µM | < 1 µM | – | –
O=C(N1CCC2(CC1)CC(CNS(=O)(=O)c1ccccc1)CCO2)C1(c2ccccc2)CCCC1 (configuration not stated) | > 39.8 µM | Non-toxic | 3.98 µM | 1 µM (≈ 0.497 µg/mL) | 40% | –
CN(C)S(=O)(=O)NCC1CCOC2(CCN(C(=O)C3(c4ccccc4Cl)CCCC3)CC2)C1 (configuration not stated) | 7.94 µM | Non-toxic | 1.26 µM | – | – | –
NC(=O)NCC1CCOC2(CCN(C(=O)C3(c4ccccc4)CCCC3)CC2)C1 (configuration not stated) | > 39.8 µM | Non-toxic | 12.6 µM | 190 µM (≈ 75.9 µg/mL) | 50% | –
CN(C)S(=O)(=O)N(C)CC1CCOC2(CCN(C(=O)C3(c4ccccc4)CCCC3)CC2)C1 (configuration not stated) | 5.01 µM | Non-toxic | 1.58 µM | 160 µM (≈ 76.4 µg/mL) | – | –
O=C(NCC1CCOC2(CCN(C(=O)C3(c4ccccc4)CCCC3)CC2)C1)c1cccnc1 (configuration not stated) | 12.6 µM | Non-toxic | 2.51 µM | 90 µM (≈ 41.5 µg/mL) | – | –
O=C(NCC1CCOC2(CCN(C(=O)C3(c4ccccc4)CCCC3)CC2)C1)C1CCCCC1 (configuration not stated) | 31.6 µM | Non-toxic | 2.51 µM | 130 µM (≈ 60.7 µg/mL) | – | –
Cc1cccc(C2(C(=O)N3CCC4(CC3)CC(CNS(=O)(=O)N(C)C)CCO4)CCCC2)c1 (configuration not stated) | > 39.8 µM | Non-toxic | 3.98 µM | – | 90% | –
CCN(C)S(=O)(=O)NCC1CCOC2(CCN(C(=O)C3(c4ccccc4)CCCC3)CC2)C1 (configuration not stated) | 15.8 µM | Non-toxic | 3.98 µM | 160 µM (≈ 76.4 µg/mL) | – | –
O=c1nc(NO)ccn1[C@@H]1O[C@H](CO)[C@@H](O)[C@H]1O [N-HYDROXYCYTIDINE] | – | – | – | – | – | 1.2 µM
CN(CC1CCOC2(CCN(C(=O)C3(c4ccccc4)CCCC3)CC2)C1)S(C)(=O)=O (configuration not stated) | 3.16 µM | Non-toxic | 1.26 µM | 180 µM (≈ 80.8 µg/mL) | – | –
O=C1CCC(=O)N1CC1CCOC2(CCN(C(=O)C3(c4ccccc4)CCCC3)CC2)C1 (configuration not stated) | 1.26 µM | Non-toxic | 1 µM | 160 µM (≈ 70.2 µg/mL) | – | –
CN(C)S(=O)(=O)NCC1CCOC2(CCN(C(=O)C3(c4ccccc4)CCCC3)CC2)C1 (configuration not stated) | > 39.8 µM | Non-toxic | 2.51 µM | 200 µM (≈ 92.7 µg/mL) | 90% | –
CN(CC1CCOC2(CCN(C(=O)C3(c4ccccc4)CCCC3)CC2)C1)C(=O)c1ccccn1 (configuration not stated) | > 39.8 µM | Non-toxic | 5.01 µM | 180 µM (≈ 85.6 µg/mL) | 80% | –
O=C(NCC1CCOC2(CCN(C(=O)C3(c4ccccc4)CCCC3)CC2)C1)Nc1ccccc1 (configuration not stated) | 15.8 µM | Non-toxic | 1.26 µM | 10 µM (≈ 4.76 µg/mL) | – | –
O=C(N1CCC2(CC1)CC(Oc1ccccn1)CCO2)C1(c2ccccc2)CCCC1 (configuration not stated) | > 39.8 µM | Non-toxic | 1.26 µM | 20 µM (≈ 8.41 µg/mL) | 60% | –
CC(C)NC(=O)NCC1CCOC2(CCN(C(=O)C3(c4ccccc4)CCCC3)CC2)C1 (configuration not stated) | > 39.8 µM | Non-toxic | 15.8 µM | 180 µM (≈ 79.5 µg/mL) | 50% | –
O=C(N1CCC2(CC1)CC(CNS(=O)(=O)CCCCCl)CCO2)C1(c2ccccc2)CCCC1 (configuration not stated) | 10 µM | Non-toxic | 1.26 µM | 60 µM (≈ 30.7 µg/mL) | – | –
O=C(NCC1CCOC2(CCN(C(=O)C3(c4ccccc4)CCCC3)CC2)C1)C1CC1 (configuration not stated) | > 39.8 µM | Non-toxic | 3.98 µM | 160 µM (≈ 67.9 µg/mL) | 80% | –
COc1ccccc1NC(=O)NCC1CCOC2(CCN(C(=O)C3(c4ccccc4)CCCC3)CC2)C1 (configuration not stated) | – | Non-toxic | 3.98 µM | < 10 µM | inactive | –
COc1ccc(NC(=O)NCC2CCOC3(CCN(C(=O)C4(c5ccccc5)CCCC4)CC3)C2)cc1 (configuration not stated) | 20 µM | Non-toxic | 3.98 µM | 10 µM (≈ 5.06 µg/mL) | – | –
CC(C)C(=O)NCC1CCOC2(CCN(C(=O)C3(c4ccccc4)CCCC3)CC2)C1 (configuration not stated) | > 39.8 µM | Non-toxic | 3.98 µM | 170 µM (≈ 72.5 µg/mL) | 80% | –
CN(CC1CCOC2(CCN(C(=O)C3(c4ccccc4)CCCC3)CC2)C1)S(=O)(=O)CCCCl (configuration not stated) | 1 µM | Non-toxic | 0.398 µM | 50 µM (≈ 25.6 µg/mL) | – | –
COc1ccc(C(=O)NCC2CCOC3(CCN(C(=O)C4(c5ccccc5)CCCC4)CC3)C2)cc1 (configuration not stated) | 20 µM | Non-toxic | 3.98 µM | 35 µM (≈ 17.2 µg/mL) | – | –

Structure (SMILES) | IC50 (Polyprotein P1234) | Activity (MRC5) | EC50 (Chikungunya virus [1]; [4]) | solubility kinetic [2] | inhibition (Chikungunya virus [3]) | EC50 (Chikungunya virus [1]; 181/25, MRC5, read-out: EC50)
O=C(N1CCC2(CC1)CC(CN1CCCCS1(=O)=O)CCO2)C1(c2ccccc2F)CCCC1 (configuration not stated) | 1 µM | Non-toxic | 0.251 µM | 190 µM (≈ 93.6 µg/mL) | – | –
CC(C)(C)NC(=O)NCC1CCOC2(CCN(C(=O)C3(c4ccccc4)CCCC3)CC2)C1 (configuration not stated) | > 39.8 µM | Non-toxic | 10 µM | 170 µM (≈ 77.5 µg/mL) | 80% | –
O=C(N1CCC2(CC1)CC(CNS(=O)(=O)C1CC1)CCO2)C1(c2ccccc2)CCCC1 (configuration not stated) | 20 µM | Non-toxic | 3.98 µM | 180 µM (≈ 82.9 µg/mL) | – | –
COc1cccc(C(=O)NCC2CCOC3(CCN(C(=O)C4(c5ccccc5)CCCC4)CC3)C2)c1 (configuration not stated) | > 39.8 µM | Non-toxic | 5.01 µM | 19 µM (≈ 9.32 µg/mL) | 70% | –
O=C(NCC1CCOC2(CCN(C(=O)C3(c4ccccc4)CCCC3)CC2)C1)c1ccncc1 (configuration not stated) | > 39.8 µM | Non-toxic | 10 µM | 170 µM (≈ 78.5 µg/mL) | 70% | –
O=C(CCCCl)NCC1CCOC2(CCN(C(=O)C3(c4ccccc4)CCCC3)CC2)C1 (configuration not stated) | 2 µM | Non-toxic | 0.316 µM | 170 µM (≈ 78.4 µg/mL) | – | –
O=C(N1CCC2(CC1)CC(CNCC(F)(F)F)CCO2)C1(c2ccccc2)CCCC1 (configuration not stated) | > 39.8 µM | Non-toxic | 12.6 µM | 170 µM (≈ 74.6 µg/mL) | – | –
CN(C)S(=O)(=O)NCC1CCOC2(CCN(C(=O)C3(c4ccccc4F)CCCC3)CC2)C1 (configuration not stated) | 31.6 µM | Non-toxic | 5.01 µM | – | – | –
O=C(N1CCC2(CC1)CC(CN1CCCS1(=O)=O)CCO2)C1(c2ccccc2)CCCC1 (configuration not stated) | 1.58 µM | Non-toxic | 0.398 µM | > 220 µM | – | –
CN(C)S(=O)(=O)NCC1CCOC2(CCN(C(=O)C3(c4cccc(C(F)(F)F)c4)CCCC3)CC2)C1 (configuration not stated) | > 39.8 µM | Non-toxic | 100 µM | – | 40% | –
Cc1ccnc(NC2CCOC3(CCN(C(=O)C4(c5ccccc5)CCCC4)CC3)C2)c1 (configuration not stated) | > 39.8 µM | Non-toxic | 6.31 µM | 70 µM (≈ 30.4 µg/mL) | 70% | –
CCS(=O)(=O)NCC1CCOC2(CCN(C(=O)C3(c4ccccc4)CCCC3)CC2)C1 (configuration not stated) | > 39.8 µM | Non-toxic | 3.16 µM | 230 µM (≈ 103 µg/mL) | 70% | –
O=C(N1CCC2(CC1)CC(CNS(=O)(=O)CCCCl)CCO2)C1(c2ccccc2)CCCC1 (configuration not stated) | 2 µM | Non-toxic | 0.631 µM | 100 µM (≈ 49.7 µg/mL) | – | –
COc1cccc(C2(C(=O)N3CCC4(CC3)CC(CNS(=O)(=O)N(C)C)CCO4)CCCC2)c1 (configuration not stated) | > 39.8 µM | Non-toxic | 6.31 µM | – | 80% | –
O=C(N1CCC2(CC1)CC(CN1CCCCS1(=O)=O)CCO2)C1(c2cc(F)cc(F)c2)CCCC1 (configuration not stated) | 0.398 µM | Non-toxic | 0.1 µM | 4 µM (≈ 2.04 µg/mL) | – | –
O=C(NCC1CCOC2(CCN(C(=O)C3(c4ccccc4)CCCC3)CC2)C1)c1ccccn1 (configuration not stated) | > 39.8 µM | Non-toxic | 1.58 µM | 190 µM (≈ 87.7 µg/mL) | 90% | –
O=C(NCC1CCOC2(CCN(C(=O)C3(c4ccccc4)CCCC3)CC2)C1)c1ccccc1 (configuration not stated) | 15.8 µM | Non-toxic | 2.51 µM | 70 µM (≈ 32.2 µg/mL) | – | –
O=C(N1CCC2(CC1)CC(CNCc1ccccc1)CCO2)C1(c2ccccc2)CCCC1 (configuration not stated) | > 39.8 µM | Non-toxic | 10 µM | 180 µM (≈ 80.4 µg/mL) | – | –
CS(=O)(=O)NCC1CCOC2(CCN(C(=O)C3(c4ccccc4)CCCCC3)CC2)C1 (configuration not stated) | > 39.8 µM | Non-toxic | 15.8 µM | 230 µM (≈ 103 µg/mL) | 80% | –
O=C(N1CCC2(CC1)CC(Nc1ccccc1)CCO2)C1(c2ccccc2)CCCC1 (configuration not stated) | 15.8 µM | Non-toxic | 5.01 µM | 20 µM (≈ 8.37 µg/mL) | – | –
CS(=O)(=O)NCC1CCOC2(CCN(C(=O)C3(c4cccc(Cl)c4)CCCC3)CC2)C1 (configuration not stated) | 20 µM | Non-toxic | 2.51 µM | – | – | –
CS(=O)(=O)N(Cc1ccccc1)CC1CCOC2(CCN(C(=O)C3(c4ccccc4)CCCC3)CC2)C1 (configuration not stated) | – | Non-toxic | 10 µM | < 1 µM | inactive | –
CCCCCC(=O)NCC1CCOC2(CCN(C(=O)C3(c4ccccc4)CCCC3)CC2)C1 (configuration not stated) | 6.31 µM | Non-toxic | 2 µM | 60 µM (≈ 27.3 µg/mL) | – | –
